Results taken from publication doi:10.1101/2025.02.26.640323, “Aggregation-Dependent Epitope Sequence and Modification Fingerprints of Anti-Aβ Antibodies” (bioRxiv, 2025).
Entries after “also recorded” stand apart in the source; their conditions may differ.

Key:
[1] = test system: synthetic Aβ peptide variants; test: Capillary isoelectric focusing (CIEF) immunoassay; format: binding
Experimental: Automated capillary isoelectric focusing immunoassays were performed with a Peggy-Sue system (ProteinSimple,San Jose, California, USA), essentially as previously described and [53].
In brief, synthetic Aβ peptide variants were separated by isoelectric focusing in microcapillaries followed by photochemical immobilization to the inner capillary walls and probing with the primary antibodies for 120 min. After 2 washes, the horseradish peroxidase conjugated secondary antibodies were loaded and incubated for 60 min. After two washing steps, a luminol/peroxide mix was loaded, and chemiluminescent signals were recorded. The data was analyzed with the Compass for SW software. The following secondary antibodies were used: Anti-human IgG Secondary HRP antibody (Protein Simple, catalog number 043–491), Goat-Anti-Mouse-HRP Secondary Antibody ProteinSimple, catalog number 040–655) and Peroxidase-conjugated Affini Pure Donkey Anti-Human IgG (H+L) (1:100 dilution) (Jackson ImmunoResearch Laboratories Inc., West Grove, PA, code number 709–035-149).

[2] = test system: Aβ(−10–18); test: Deep mutational scans of 18-meric Aβ peptides on microarray; format: binding, human
[3] = test system: Aβ vascular and parenchymal deposits in AD brain sections; test: Immunohistochemistry on AD brain tissue with antibody pre-adsorption; design: species or system human; details: 1 μg Donanemabbs with 2.5 μg peptide; human AD brain
Experimental: Immunohistochemistry was performed on 4-μm paraffin sections. In brief, brain sections were deparaffinized in Roticlear (Carl Roth, Karlsruhe, Germany) and rehydrated in a descending series of ethanol. Activity of endogenous peroxidases was blocked by incubation in 0.3% H2O2 in PBS for 30 min. […] Antibodies and peptides were incubated on a rotator for 3 h at room temperature and reaction tubes were centrifuged at 13000 rpm for 5 min at the end of the incubation period. Control conditions included antibodies in 0.01 M PBS including 10% FCS without synthetic peptides. Adjacent paraffin-embedded sections from a human AD case were incubated overnight with the supernatants and sections were washed with 0.01 M PBS including 0.1 % Tergitol. For detection, biotinylated anti-human antibodies (6 μg/ml, Jackson ImmunoResearch, West Grove, Pennsylvania, USA #109-065-003) were used and staining was visualized with the ABC method with a Vectastain kit (Vector Laboratories, Newark, California, USA), diaminobenzidine as a chromogen and counterstaining with hematoxylin.

With “Donanemabbs: humanized monoclonal, biosimilar of Donanemab, Proteogenix (#PX-TA1549)” as the substance, how does the “signals with other N-terminal Aβ variants (CIEF and Bicine-Tris Western blot)” value [1] read?
The value was “no or very small signals”.

And the “preference of Aβ variant (CIEF and Bicine-Tris Western blot)” value ([1]; AβpE3–40 vs Aβ3–40)?
Its value is “clear preference for the Aβ variant starting with the cyclized N-terminal pE; also recorded: high preference for pyroglutamate bearing pEAβ3–40”.

And the “Aβ variants detected on CIEF-immunoassay” value ([1]; Peggy Sue, chemiluminescence)?
The value was “detected AβpE3–40 and Aβ3–40”.

What about the “core motif / main contacts / epitope” value ([2]; 18-mer deep mutational scan, core position if >50% of exchanges reduce binding by >50%) of the same substance?
Its value is “EFRHDSGY”.

What about the “residue conservation at Asp(1) and Ala(2)” value ([2]; Aβ1–18 deep mutational scan) of the same substance?
Its value is “Asp(1) and Ala(2) were not highly conserved”.

And the “IHC immunoreactivity after pre-adsorption with Aβ1–40” value [3]?
Its value is “not suppressed”.

And the “IHC immunoreactivity after pre-adsorption with Aβ3–40” value [3]?
The value was “not suppressed”.

What about the “IHC immunoreactivity after pre-adsorption with AβpE3–40” value [3] of the same substance?
The value was “efficiently suppressed; also recorded: effectively attenuated”.
